This note sets out measurements from US20250320250A1, “PHARMACEUTICAL COMPOSITIONS FOR THE TREATMENT OF VISCERAL PAIN” (Ironwood Pharmaceuticals, Inc., priority 2021, published 2025).

In the test the test system is visceral hypersensitivity and bladder dysfunction. In words: Nonclinical pharmacology models of visceral hypersensitivity and bladder dysfunction. Format: in vivo. To be noted: doses above 10 μg/kg/day. Here is the method:
The peptide of the present disclosure doses of 100 μg and 300 μg were selected based on nonclinical pharmacology models of visceral hypersensitivity and bladder dysfunction using the peptide of the present disclosure and another GC-C agonist, linaclotide, with similar activity. […] The human equivalent daily dose (HED) extrapolated from pharmacologically active dose levels in nonclinical models is 180 μg to 600 μg (based on body weight) and 15 μg to 100 μg based on body surface area. Choosing 2 doses for investigation in this study should allow for observation of a dose response.

For “peptide of the present disclosure: GC-C agonist peptide, active pharmaceutical ingredient of the rectal foam composition (CXELCCNVACYGC; not fully specified; SITE 2 X is a homocysteine contributing to a cystathionine unit (linking the homocysteine at residue 2 and cysteine at residue 10 via a thioether bond); DISULFID 1..6 Intrachain; DISULFID 5..13 Intrachain; CROSSLNK 2..10 homocysteine at position 2 and the cysteine at position 10 are connected by an internal sulfide (or thioether bond); SITE 1 Optionally acetylated N-terminus)”, the “benefit at higher doses” value is on record as “diminishing benefit”.
